Values of other authors, collected in US9039761B2, “Ocular implant delivery assemblies with distal caps” (Allergan, Inc., priority 2006, dated 2015).

Settings: efficacy in vivo; Goodman and Gilman's 8th Edition p. 1447

## C[C@]12CCC(=O)C=C1CC[C@@H]1[C@@H]2[C@@H](O)C[C@@]2(C)[C@H]1CC[C@]2(O)C(=O)CO [hydrocortisone]
  potency relative to dexamethasone (fold less potent): approximately twenty-five
